For data set [1], the system named is patient-derived NSCLC organoid. The experiment in a line: Organoid drug response assay (CellTiter-Glo). The class given is cell-based, human. The settings on record: three days of drug incubation; three patient models. As to the method: All procedures performed involving human participants were approved by the Ethics Committee of Shanghai Jiao Tong University School of Medicine and were in accordance with the ethical standards of Helsinki Declaration (as revised in 2013). All the donors signed an informed consent form. Freshly excised tumor samples from patients were kept in MACS tissue storage solution (Miltenyi) at 4° C. upon harvest. Tumor tissues were minced into small pieces on ice, then incubated with 0.001% DNase (Sigma-Aldrich, MO, USA), 1 mg/mL collagenase/dispase (Roche, IN, USA), 200 U/mL penicillin, […], and […] amphotericin B (2% antibiotics, Sigma) in DMEM/F12 medium (Thermofisher) at 37° C. for three hours with gentle agitation and intermittent resuspension. Thereafter, the digested tissue suspension was repeatedly triturated via pipetting and passed through a 70 μm filter. The strained suspension was centrifuged at 112×g for three minutes, and red blood cells were lysed using lysis buffer (00443357, Thermofisher) for five minutes. […]
The organoids cultured over two weeks were harvested and dissociated using 1× TrypLe (Thermofisher). […] The plates were agitated for 30 minutes at room temperature (10° C.-30° C.) prior to measuring luminescence.

Data set [2] concerns peripheral blood mononuclear cells (PBMC). The experiment in a line: Toxicity on patients' PBMC. In kind it is cell-based, human. The method, then:
Then, treating organoids in presence of 5 μg/mL pembrolizumab, in combination with either of these agents (AZD3965 at 0.1 μM, GSK2837808A at 1 μM, and WZHAb10 at 0.0006 μM) and each PBMC (FIGS. 18, 19 and 20). IgG was used as control in FIG. 18, IgG and/or vehicle were used as control in FIGS. 19-20.

For a further data set, the target named is WT MCT1/BSG-2 (mouse) (UniProt P53986).
A further data set deals with WT MCT4/BSG-2 (mouse) (UniProt P57787).

Regarding `Cc1[nH]nc(C(F)(F)F)c1Cc1sc2c(c1C(=O)N1C[C@](C)(O)CO1)c(=O)n(C)c(=O)n2C(C)C` [AZD3965], in data set [1], the “anti-proliferative effect of single agent on organoids” value is “moderate anti-proliferative effect”. For the same molecule, the “effect on T cell growth (PBMC)” value in data set [2] (at 0.1 μM) is given as “little effects on T cell growth”.

As for `COc1ncc(-c2ccc3c(Nc4cc(Oc5cc(F)cc(F)c5)cc(C(=O)O)c4)c(S(=O)(=O)NC4CC4)cnc3c2)c(OC)n1` [GSK2837808A], in data set [1], the “anti-proliferative effect of single agent on organoids” value is “moderate anti-proliferative effect”. Moreover, the “effect on T cell growth (PBMC)” value in data set [2] (at 1 μM) is recorded as “little effects on T cell growth”.

B1: WZHAb10 (antibody, V domains shown)
VH: QVQLVQSGAEVKKPGASVKVSCKASGYTFTNYWIHWVRQAPGQGLEWMGMIHPNSGSINYNEKFKTRVTMTRDTSTSTVYMELSSLRSEDTAVYYCARVGSGSLDYWGQGTLVTVSS
VL: EIVLTQSPATLSLSPGERATLSCRASQSISDYLHWYQQKPGQAPRLLIKYVSQSISGIPARFSGSGSGTYFTLTISSLEPEDVAVYYCQNGEEAPYTFGQGTKLEIKR
B1 gave a transport activity (H+ influx, H+-pyruvate symport in proteoliposomes) with WT MCT1/BSG-2 (mouse) of 75%. The same molecule came in with a transport activity (H+ influx, H+-L-lactate symport in proteoliposomes) in the data set with WT MCT4/BSG-2 (mouse) of 50%.

The values above are taken from patent publication US12357691B2, “Antibodies specifically binding to CD147 and uses thereof” (Alphelix Biotech Co., Ltd., priority 2022, dated 2025).
